Assay results reported in PubChem BioAssay (NCI).
“And” between values parts separate entries of the source, which are not always exact repeats. Equal values may be shown once.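 Compound exposure: 48 hours, 5 concentrations, 96-well plates. Abbreviation: GI50, concentration required for 50% inhibition of growth. TGI: total growth inhibition.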

How the values were obtained:
Assay in all cases: NCI tumour cell line growth inhibition, 48 h
RXF 393 renal = system: RXF 393 renal
K-562 leukemia = system: K-562 leukemia
SK-MEL-2 melanoma = system: SK-MEL-2 melanoma
OVCAR-3 ovarian = system: OVCAR-3 ovarian
OVCAR-5 ovarian = system: OVCAR-5 ovarian
MOLT-4 leukemia = system: MOLT-4 leukemia
MDA-MB-231 breast = system: MDA-MB-231 breast
NCI/ADR-RES ovarian = system: NCI/ADR-RES ovarian
MDA-MB-435 = system: MDA-MB-435
UACC-62 melanoma = system: UACC-62 melanoma

`COc1ccc2c3c1OC1C(=O)C=CC4(CC2)N(C)CCC314` (configuration not stated) gave a TGI (RXF 393 renal) of over 100 µM, a TGI (K-562 leukemia) of over 100 µM and a TGI (SK-MEL-2 melanoma) of 54.3 µM. It also gave a TGI (OVCAR-3 ovarian) of over 100 µM, a TGI (OVCAR-5 ovarian) of 92.4 µM and a TGI (MOLT-4 leukemia) of 59 µM. For the same compound, the TGI (MDA-MB-231 breast) was over 100 µM, the TGI (NCI/ADR-RES ovarian) was over 100 µM and the TGI (MDA-MB-435) was 61.2 µM.

Compound `C=C/C(C)=C\CC1[C@](C)(O)CC[C@H]2C(C)(C)C(=O)CC[C@]12C` (some centres not stated) has a TGI (RXF 393 renal) of over 100 µM, a TGI (K-562 leukemia) of over 100 µM and a TGI (UACC-62 melanoma) of over 100 µM. The TGI (SK-MEL-2 melanoma) was over 100 µM, the TGI (OVCAR-3 ovarian) was over 100 µM and the TGI (OVCAR-5 ovarian) was over 100 µM. The TGI (MOLT-4 leukemia) was 79.3 µM, the TGI (MDA-MB-231 breast) was over 100 µM and the TGI (NCI/ADR-RES ovarian) was over 100 µM. It also gave a TGI (MDA-MB-435) of over 100 µM.

`CC1CCCC2(CC[N+](C)(CCC[N+](C)(C)C)CC2)C1` (configuration not stated) gave a TGI (RXF 393 renal) of over 100 µM, a TGI (K-562 leukemia) of over 100 µM and a TGI (UACC-62 melanoma) of over 100 µM. For the same compound, the TGI (SK-MEL-2 melanoma) was over 100 µM, the TGI (OVCAR-3 ovarian) was over 100 µM and the TGI (OVCAR-5 ovarian) was over 100 µM. It also gave a TGI (MOLT-4 leukemia) of over 100 µM, a TGI (MDA-MB-231 breast) of over 100 µM and a TGI (NCI/ADR-RES ovarian) of over 100 µM. The TGI (MDA-MB-435) was over 100 µM.

`Cc1ccc(OCC2OC(n3cnc4c(Cl)nc(N)nc43)CC2Oc2ccc(C)cc2)cc1` (configuration not stated) was tested, and the TGI (RXF 393 renal) was over 100 µM, the TGI (K-562 leukemia) was over 100 µM and the TGI (UACC-62 melanoma) was over 100 µM. The TGI (SK-MEL-2 melanoma) was over 56.9 µM, the TGI (OVCAR-3 ovarian) was over 63.9 µM and the TGI (OVCAR-5 ovarian) was over 100 µM. It also gave a TGI (MOLT-4 leukemia) of over 100 µM, a TGI (MDA-MB-231 breast) of over 100 µM and a TGI (NCI/ADR-RES ovarian) of over 75.5 µM. The TGI (MDA-MB-435) was over 100 µM.

In the case of `O=S(Nc1ccccc1)c1ccc(N2CCOCC2)cc1` (configuration not stated), the TGI (K-562 leukemia) is reported as over 100 µM, the TGI (UACC-62 melanoma) is reported as 99.3 µM and the TGI (SK-MEL-2 melanoma) is reported as over 100 µM. The TGI (OVCAR-3 ovarian) was over 100 µM, the TGI (MOLT-4 leukemia) was over 100 µM and the TGI (MDA-MB-231 breast) was over 100 µM. For the same compound, the TGI (NCI/ADR-RES ovarian) was over 100 µM and the TGI (MDA-MB-435) was over 100 µM.

Compound `CCNCCCn1c2c(c3ccc(Cl)cc3c1=O)C(=O)c1cc(OC)cnc1-2` has a GI50 (RXF 393 renal) of 1.03 µM, a TGI (RXF 393 renal) of 2.43 µM and a GI50 (UACC-62 melanoma) of 0.532 µM. It also gave a TGI (UACC-62 melanoma) of 21.4 µM, a GI50 (SK-MEL-2 melanoma) of 12.5 µM and a TGI (SK-MEL-2 melanoma) of 29.2 µM. For the same compound, the GI50 (OVCAR-3 ovarian) was 2.13 µM, the TGI (OVCAR-3 ovarian) was 19.6 µM and the GI50 (OVCAR-5 ovarian) was 1.48 µM. For the same compound, the TGI (OVCAR-5 ovarian) was 3.31 µM, the GI50 (MOLT-4 leukemia) was 0.0384 µM and the TGI (MOLT-4 leukemia) was 1.62 µM. For the same compound, the GI50 (MDA-MB-231 breast) was 1.5 µM, the TGI (MDA-MB-231 breast) was 3.23 µM and the GI50 (NCI/ADR-RES ovarian) was 0.282 µM. It also gave a TGI (NCI/ADR-RES ovarian) of 2.53 µM, a GI50 (MDA-MB-435) of 1.15 µM and a TGI (MDA-MB-435) of 2.55 µM.

`CCCCOC(=O)C(NC(C(=O)OCCCC)c1cc(C(C)(C)C)c(O)c(C(C)(C)C)c1)c1cc(C(C)(C)C)c(O)c(C(C)(C)C)c1` (configuration not stated) gave a TGI (K-562 leukemia) of over 100 µM, a TGI (UACC-62 melanoma) of over 100 µM and a TGI (SK-MEL-2 melanoma) of over 100 µM. The TGI (OVCAR-3 ovarian) was over 100 µM, the TGI (OVCAR-5 ovarian) was over 100 µM and the TGI (MOLT-4 leukemia) was over 100 µM. For the same compound, the TGI (MDA-MB-231 breast) was over 100 µM, the TGI (NCI/ADR-RES ovarian) was over 100 µM and the TGI (MDA-MB-435) was over 100 µM.

Work on `O=C1NC(Nc2ccccc2)=NC(C(F)(F)F)(C(F)(F)F)N1` yielded a TGI (K-562 leukemia) of over 100 µM, a TGI (UACC-62 melanoma) of over 100 µM and a TGI (SK-MEL-2 melanoma) of 75.4 µM. The TGI (OVCAR-3 ovarian) was over 100 µM, the TGI (OVCAR-5 ovarian) was over 100 µM and the TGI (MOLT-4 leukemia) was over 100 µM. It also gave a TGI (MDA-MB-231 breast) of over 100 µM, a TGI (NCI/ADR-RES ovarian) of over 100 µM and a TGI (MDA-MB-435) of over 100 µM.

`[Cl][Sn]([c]1ccccc1)([c]1ccccc1)[c]1ccccc1` was tested, and the GI50 (RXF 393 renal) was 0.161 µM and 0.0196 µM, the TGI (RXF 393 renal) was 0.324 µM and 0.0434 µM and the GI50 (K-562 leukemia) was 0.302 µM. The TGI (K-562 leukemia) was 0.892 µM, the TGI (SK-MEL-2 melanoma) was 0.524 µM and 0.196 µM and 0.0578 µM and the TGI (OVCAR-3 ovarian) was 0.362 µM and 0.0422 µM and 0.0566 µM. For the same compound, the TGI (OVCAR-5 ovarian) was 0.456 µM and 0.266 µM and 0.0901 µM, the GI50 (MDA-MB-231 breast) was 0.216 µM and the TGI (MDA-MB-231 breast) was 0.54 µM. For the same compound, the GI50 (MDA-MB-435) was 0.186 µM and the TGI (MDA-MB-435) was 0.42 µM.

With `CCOC(=O)CCC(NC(=O)OCc1ccccc1)C(=O)NC(CCC(=O)OCC)C(=O)NC(CCC(=O)OCC)C(=O)NC(CCC(=O)OCC)C(=O)NC(CCC(=O)OCC)C(=O)NC(CCC(=O)OCC)C(=O)NC(CCC(=O)OCC)C(=O)OCC` (configuration not stated) the TGI (K-562 leukemia) was over 100 µM, the TGI (UACC-62 melanoma) was over 100 µM and the TGI (SK-MEL-2 melanoma) was over 100 µM. For the same compound, the TGI (OVCAR-3 ovarian) was over 100 µM, the TGI (OVCAR-5 ovarian) was over 100 µM and the TGI (MOLT-4 leukemia) was over 100 µM. For the same compound, the TGI (MDA-MB-231 breast) was over 100 µM and the TGI (MDA-MB-435) was over 100 µM.
